Assay results: patent publication US3971814A, “Benzo(b)thiophene derivatives” (priority 1972, dated 1976)
“Also recorded” adds a separate entry of the source.

How the values were obtained:
[1] = tested on: Yeast Edema of the Rat Paw; test: Yeast edema and determination of pain threshold in the rat paw; format: in vivo; conditions: 3 h; for Pain Threshold (change vs initial value) / Volume (increase in paw volume, blank control = 100%): i.g.
Experimental: test animals are male rats (SIV 50) weighing 100 to 180 g. […] 10 animals belonged to each dosage group.
The volume of the paw is determined according to the method described by Enders and Heidbrink, the pain threshold according to that described by Randall and Selitto (Arch. Int. Pharmacodyn CXI: 409, 1957).
Following initial measurements, […] of a 5% suspension of dried yeast is injected subplantarly into the right paw and the test substances are administered immediately. The blank control group is given Tragacanth mucilage only. After 3 hours the pain threshold and the volume of the paw are determined again.
The mean value of the increase in paw volume of the animals of the blank control after 3 hours is rated 100%, and the mean value of the increase in paw volume of the animals of the substance groups expressed as a percentage thereof. Pain threshold after 3 hours reflects the increase or decrease in percent, compared to the initial value.
In order to be able to calculate the ED50 according to the method by Lichtfield and Wilcoxon (J.P.E.T. 96:99, 1949), those animals in a dose group are considered protected when the paw swelling was at least 40% less than that of the blank control.

[2] = tested on: Carrageenin Edema of the Rat Paw; test: Carrageenin edema of the rat paw; format: in vivo
Experimental: test animals used are the same as stated under Example B and up to the initial measurement, the procedure corresponded to that described under this example.
After an initial measurement, the test substances are administered and after 60 minutes a 1% Carrageenin suspension is injected subplantarly (0.1 ml/paw). After 60 and 180 minutes the paw volume is again determined. Here, too, the blank control group was treated with the carrier alone.
The increase in the volume of the paw after 60 minutes is considered as the first phase of the biphase edema and that after 180 minutes, as compared to the 60-minute-value, as the second phase. Moreover, the total increase of the paw edema within 180 minutes, as compared to the initial value, is also determined.
Determination of the influence exerted by the substances upon the development of the paw edema and calculation of the ED50 are done as under Example B.

[3] = tested on: Kaolin Edema of the Rat Paw; test: Kaolin edema of the rat paw; format: in vivo
Experimental: test animals used are the same as stated under Example B and up to the beginning of the test, the procedure corresponded to that described under this example.
After an initial measurement, a sterile 25% kaolin suspension was injected (0.05 ml/paw) subplantarly. The test substances are administered immediately, and after 60, 120, and 180 minutes the paw volume is again determined.
Evaluation of the tests was performed as stated under Example C, and the results so obtained presented below: […]

Granulation Tissue = test: Cotton-pellet test (granulation tissue); format: in vivo; conditions: rat; for Granulation Tissue % (Dry Weight) / Increase in Body Weight: i.g.; for granulation tissue % dry weight: ig., 2×1,5 mg/kg daily, section K
Experimental: test animals are male rats (SIV 50) weighing 110 to 200 g. All test animals are kept fasting for 16 to 18 hours prior to the implantation of the pellets; after that food and water were available ad libitum. Each dose level of the chemical tested was administered to 12 animals. The substances were suspended in 1% Tragacanth mucilage and administered intragastrically by means of a stomach tube. The substances to be investigated and the control suspensions are administered once on the operating day following operation, and twice a day on the following 6 days (at intervals of 6 to 8 hours). The type of application and volume of liquid corresponded to that under B.
Under light ether anesthesia 4 sterile cotton pellets were implanted under the skin on the back of the animal. The weight of one pellet was 50 mg ± 0.5 mg. After 7 days treatment, the animals were sacrificed, the pellets removed with the granulation tissue, weighed and then dried in the incubator at +80°C to constant weight. The average dry weight of the granulation tissue of the control group was rated 100%, and deviations of the mean weights of the group treated with the test substance determined as a percentage thereof.
The weight of the animals is measured daily throughout the tests, and the percental increase determined. At the end of some tests, moreover, the suprarenal glands are removed and their weight determined.

Granuloma Pouch = test: Granuloma pouch test; format: in vivo; conditions: rat, i.g.
Experimental: Under light ether anesthesia 25 ml of air are injected under the shaved skin of the back. 0.5 ml of croton oil/animal (0.05%) are injected into the pouch formed by the air, and evenly distributed over the back by turning the animal.
On the third day croton oil (3%, 0.5 ml/animal) is again injected into this pouch.
The average dry weights of the granuloma pouches and the quantities of secretion of the groups subjected to treatment are then compared with those of the control group and the percental deviations calculated.
At the end of some tests the suprarenal glands are removed and the weight of these organs is also determined.
The weight of the animals is measured daily and the changes determined as a percentage.

[4] = tested on: Arthritis Induced by the Freund Adjuvant; test: Adjuvant arthritis; format: in vivo; conditions: rat, i.g.
Experimental: test animals used are the same as described under Example E; food and water is given ad libitum.
On the first day of the test a 0.8% suspension of Mycobacterium butyrium in paraffin (0.05 or 0.1 ml/paw) is injected subplantarly into the left hind paw of the animals. […] From the 19th to the 22nd day the animals showing a reaction are treated intragastrically with the test substances. The right paw having been marked above the ankle-joint, the volume is determined daily from the 19th to the 22nd or 23rd day, according to the process described under Example B.
The volume of liquid, as well as of the carrier administered, corresponded to that described in the above tests.

male mice (NMRI) [5] = test: Hot-plate test (analgesia); format: in vivo; conditions: mouse
Experimental: male mice (NMRI) weighing 18 to 28 g are used as test animals. The animals are placed on a copper plate constantly kept at 55°C, and the time is measured until they lick their forepaws.
Following 3 initial measurements, the test substances are administered intragastrically. Afterwards the measurements are repeated over a period of 2 hours at intervals of 30 minutes. Each dose is administered to 10 animals selected from groups of 15 animals following the initial measurements.
The test substances are administered as a suspension in 1% Tragacanth mucilage, the volume of liquid amounting to 2 ml/100 g of body weight.
For the purpose of statistical evaluation according to Litchfield and Wilcoxon, those animals in which the reaction time has been extended by at least 100% are considered protected.

[6] = tested on: increased body temperature of the rat; test: Antipyresis (yeast-induced fever); format: in vivo; conditions: i.g.
Experimental: test animals are male rats (SIV 50) weighing 100 to 180 g. 16 hours prior to the beginning of the test a 12% suspension of dried yeast (1 or 2 ml/100 g of body weight) is injected subcutaneously. When the maximum of the increase in body temperature is reached, following 3 to 4 initial measurements, the test substances are applied intragastrically and the development of the body temperature is observed for a period of 7 hours.
The test substances administered are suspended in Tragacanth mucilage; the volume of liquid administered amounting to 2 ml/100 g of body weight. In this test 2 control groups are used, one given sodium chloride subcutaneously (normal temperature group) and to the other group a yeast suspension is administered subcutaneously but, instead of the test substances, Tragacanth mucilage is administered intragastrically (fever control group).

[7] = Summary: calculated ED50 and therapeutic ratio; format: in vivo, rat; conditions: for ED50: Rattus norvegicus; for therapeutic ratio: from ED50 and LD50 (A)
Experimental: From the ED50 and LD50 (A) the following therapeutic ratios for this test are calculated: […]

[8] = Overall summary of pharmacological results in words; format: in vivo
male mice (NMRI) [9] = conditions: mouse, in vivo
in vivo [10] = conditions: rat, po
Experimental: experimental animals are male mice (NMRI) weighing 16 to 24 g and male rats (SIV 50) weighing 120 to 180 g.
Prior to the beginning of the test, all animals are kept fasting for 16 to 18 hours, however water is offered ad libitum. 6 mice and 4 or 6 rats belonged to each dosage group and the doses between each group are increased logarithmically. The volume of liquid administered during testing amounted to 2 ml/100 g body weight. The substances tested are suspended in 1 percent Tragacanth mucilage and administered intragastrically via a gastric tube.

in vivo [11] = conditions: mouse, po

## CCOC(=N)c1sc2ccccc2c1O [Example 2, Ethyl 3-Hydroxy-Benzo[b]Thiophene-2-Carboximidate]
[1]; 31.2 mg/kg
  Pain Threshold (change vs initial value): +10%
  Volume (increase in paw volume, blank control = 100%): 77%
[1]; 62.5 mg/kg
  Pain Threshold (change vs initial value): +46%
  Volume (increase in paw volume, blank control = 100%): 50%
[1]; 125.0 mg/kg
  Volume (increase in paw volume, blank control = 100%): 35%
[2]; 62.5 mg/kg
  1st Phase (paw edema): 65%
  2nd Phase (paw edema): 73%
  3 Hrs. (total paw edema): 62%
[2]; 125.0 mg/kg
  1st Phase (paw edema): 65%
  2nd Phase (paw edema): 27%
  3 Hrs. (total paw edema): 42%
[2]; 250.0 mg/kg
  1st Phase (paw edema): 29%
  2nd Phase (paw edema): 20%
  3 Hrs. (total paw edema): 25%
[3]; 25.0 mg/kg
  60 Minutes (paw edema): 36%
  120 Minutes (paw edema): 44%
  180 Minutes (paw edema): 50%
[3]; 50.0 mg/kg
  60 Minutes (paw edema): 62%
  120 Minutes (paw edema): 40%
  180 Minutes (paw edema): 5%
Granulation Tissue; 2 × 75 mg/kg daily
  Granulation Tissue % (Dry Weight): 78%
  Increase in Body Weight: not influenced
Granuloma Pouch; 2 × 125 mg/kg daily
  Granuloma Pouch Dry Weight: 70%
  Increase in Body Weight: not influenced
  Secretion: 59%
[4]; 2 × 125.0 mg/kg
  Swelling: 81%
Male mice (NMRI) [5]; as shown in (H)
  analgesic activity: sufficient analgesic activity
[6]; 150 mg/kg vs 300 mg/kg acetylsalicylic acid
  antipyretic effect: considerably more effective than 300 mg/kg of acetylsalicylic acid
[6]; yeast fever, vs control substances
  antipyretic effect (decreasing body temperature): superiority of the Example 2 substance for decreasing body temperature; also recorded: stronger than that of comparable substances
[7]
  ED50: 93.1 mg/kg
  therapeutic ratio: 42.9
[8]; all test models
  anti-inflammatory effect: proved in all test models; also recorded: of the same order as that of the most potent commercially available anti-inflammatory preparations
[8]; compared to customary anti-inflammatory preparations
  analgesic activity: particularly marked
[8]; doses as low as 50 mg/kg
  anti-inflammatory effect: clear anti-inflammatory effect
[8]; in vivo
  toxicity levels vs standard substances: very favorable
Male mice (NMRI) [9]
  LD50: 3.890 mg/kg

## COc1ccc2c(c1)c(CC(=O)O)c(C)n2C(=O)c1ccc(Cl)cc1 [Indomethacin, 1-(p-Chlorobenzoyl)-5-methoxy-2-methylindole-3-acetic acid]
In vivo [10]
  LD50: 20 to 30 mg/kg
[1]; 5.0 mg/kg
  Pain Threshold (change vs initial value): -22%
  Volume (increase in paw volume, blank control = 100%): 131%
[1]; 20.0 mg/kg
  Pain Threshold (change vs initial value): +11%
  Volume (increase in paw volume, blank control = 100%): 108%
[1]; po, ig., 5 mg/kg, section K
  change in vivo at 5 mg/kg: -22%
[1]; po, ig., 5 mg/kg, section K, read-out: volume (paw, control = 100%)
  response vs control in vivo at 5 mg/kg: 100%
[2]; 1.0 mg/kg
  1st Phase (paw edema): 65%
  2nd Phase (paw edema): 80%
  3 Hrs. (total paw edema): 73%
[2]; 5.0 mg/kg
  1st Phase (paw edema): 80%
  2nd Phase (paw edema): 73%
  3 Hrs. (total paw edema): 73%
[3]; 2.5 mg/kg
  60 Minutes (paw edema): 79%
  120 Minutes (paw edema): 81%
  180 Minutes (paw edema): 81%
Granulation Tissue; 2 × 1.5 mg/kg daily
  Granulation Tissue % (Dry Weight): 80%
  Increase in Body Weight: not influenced
Granulation Tissue; NaCl control group
  granulation tissue % dry weight: 91%
Granulation Tissue; tragacanth control group
  granulation tissue % dry weight: 65%
Granuloma Pouch; 2 × 1.5 mg/kg daily
  Exitus (footnote): Exitus of an animal
  Granuloma Pouch Dry Weight: 98%
  Increase in Body Weight: not influenced
  Secretion: 134%
[4]; 2 × 2.5 mg/kg
  Swelling: 80%
Male mice (NMRI) [5]; i.g.
  Notes (analgesic activity): slightly effective
Male mice (NMRI) [5]; i.g., starting with 20 mg/kg
  protection: approx. 50%
[7]
  ED50: 0.9 mg/kg
  therapeutic ratio: 33.3
In vivo [11]
  LD50: < 10 mg/kg
